Each compound was assayed against T1, AMPA receptor (human GluR1 flip/stargazin expressed in CHO-K1 cells) (Homo sapiens, UniProt P42261) (assay: AMPA receptor function enhancing activity using calcium influx as index). Conditions: test compound 30 μM with 3 mM glutamic acid, change in fluorescence level in 3 min, 100% = 3 mM glutamic acid + 300 μM cyclothiazide, 0% = 3 mM glutamic acid only.
T1 construct: expressed in transfected cells; host or cells: CHO-K1
Type: cell-based
Summary of the method: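 CHO-K1 clone stably co-expressing human GluR1 flip and stargazin, loaded with Calcium 4 dye plus probenecid. Compound at 30 μM was added with glutamate (3 mM final) and fluorescence change followed over 3 min. Activity is expressed as % of the 3 mM glutamate plus 300 μM cyclothiazide response, with glutamate alone as 0%.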

T1 sequence (P42261 19-906 isoform P42261-2 limits assumed): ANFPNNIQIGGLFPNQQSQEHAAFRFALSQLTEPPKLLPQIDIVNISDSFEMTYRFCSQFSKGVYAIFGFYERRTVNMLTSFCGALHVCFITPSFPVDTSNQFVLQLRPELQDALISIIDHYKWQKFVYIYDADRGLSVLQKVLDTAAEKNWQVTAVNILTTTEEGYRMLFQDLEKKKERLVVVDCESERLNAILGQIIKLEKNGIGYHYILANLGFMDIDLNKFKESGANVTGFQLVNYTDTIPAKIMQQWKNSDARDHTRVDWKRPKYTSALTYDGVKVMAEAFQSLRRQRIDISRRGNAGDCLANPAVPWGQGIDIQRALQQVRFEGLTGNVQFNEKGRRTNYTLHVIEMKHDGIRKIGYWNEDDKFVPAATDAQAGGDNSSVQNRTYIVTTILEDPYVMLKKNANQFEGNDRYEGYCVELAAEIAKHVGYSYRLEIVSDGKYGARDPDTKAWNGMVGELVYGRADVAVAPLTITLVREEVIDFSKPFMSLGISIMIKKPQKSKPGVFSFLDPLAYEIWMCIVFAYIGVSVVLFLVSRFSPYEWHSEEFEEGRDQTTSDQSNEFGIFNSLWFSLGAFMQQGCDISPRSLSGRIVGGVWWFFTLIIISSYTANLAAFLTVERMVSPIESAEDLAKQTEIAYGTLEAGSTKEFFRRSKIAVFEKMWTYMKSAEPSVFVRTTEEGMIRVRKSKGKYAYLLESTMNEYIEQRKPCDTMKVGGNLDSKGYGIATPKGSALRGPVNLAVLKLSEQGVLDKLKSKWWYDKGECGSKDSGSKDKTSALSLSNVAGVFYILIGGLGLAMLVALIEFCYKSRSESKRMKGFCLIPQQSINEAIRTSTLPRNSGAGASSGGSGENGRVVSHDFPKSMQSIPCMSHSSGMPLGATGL
T1 sequence (Q9Y698 whole entry partner): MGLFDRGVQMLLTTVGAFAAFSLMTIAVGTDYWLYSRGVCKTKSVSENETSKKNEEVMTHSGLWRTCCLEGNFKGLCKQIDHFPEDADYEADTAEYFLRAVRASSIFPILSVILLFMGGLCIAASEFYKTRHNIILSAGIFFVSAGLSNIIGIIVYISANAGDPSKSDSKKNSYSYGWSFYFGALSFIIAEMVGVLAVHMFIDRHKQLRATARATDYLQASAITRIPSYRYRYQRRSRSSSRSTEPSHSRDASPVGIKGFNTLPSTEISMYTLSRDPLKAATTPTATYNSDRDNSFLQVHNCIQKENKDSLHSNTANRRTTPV

Row | SMILES | activity (%)
1 | O=S1(=O)CCN2C=CN=C(c3ccc(Oc4ccccc4)cc3)C2=N1 [Example 210, 9-(4-phenoxyphenyl)-3,4-dihydropyrazino[2,1-c][1,2,4]thiadiazine 2,2-dioxide] | 82
2 | O=S1(=O)CCN2CCNC(c3ccc(Oc4ccccc4)cc3)C2=N1 (stereo not drawn) [Example 211, 9-(4-phenoxyphenyl)-3,4,6,7,8,9-hexahydropyrazino[2,1-c][1,2,4]thiadiazine 2,2-dioxide] | 71
3 | Cc1cc(Cl)ccc1Oc1ccc([C@@H]2CCCN3CCS(=O)(=O)N=C23)cc1 [Example 215, (9S)-9-[4-(4-chloro-2-methylphenoxy)phenyl]-3,4,6,7,8,9-hexahydropyrido[2,1-c][1,2,4]thiadiazine 2,2-dioxide] | 67
4 | O=S1(=O)CCN2CCC[C@@H](c3ccc(-c4ccccc4Cl)cc3)C2=N1 [Example 220, (9S)-9-(2′-chlorobiphenyl-4-yl)-3,4,6,7,8,9-hexahydropyrido[2,1-c][1,2,4]thiadiazine 2,2-dioxide] | 93
5 | O=S1(=O)CCN2CCCC(c3ccc(-c4ccccc4Cl)cc3)C2=N1 (stereo not drawn) [Example 221, 9-(2′-chlorobiphenyl-4-yl)-3,4,6,7,8,9-hexahydropyrido[2,1-c][1,2,4]thiadiazine 2,2-dioxide] | 96
6 | O=S1(=O)CCN2CCC[C@@H](c3ccc(-c4ccc(F)c(Cl)c4)cc3)C2=N1 [Example 226, (9S)-9-(3′-chloro-4′-fluorobiphenyl-4-yl)-3,4,6,7,8,9-hexahydropyrido[2,1-c][1,2,4]thiadiazine 2,2-dioxide] | 79
7 | O=S1(=O)CCN2CCC[C@@H](c3ccc(Oc4ccc(Br)cc4)cc3)C2=N1 [Example 228, (9S)-9-[4-(4-bromophenoxy)phenyl]-3,4,6,7,8,9-hexahydropyrido[2,1-c][1,2,4]thiadiazine 2,2-dioxide] | 78
8 | CC(F)(F)c1ccc(C2CCCN3CCS(=O)(=O)N=C23)cc1 (stereo not drawn) [Example 230, 9-[4-(1,1-difluoroethyl)phenyl]-3,4,6,7,8,9-hexahydropyrido[2,1-c][1,2,4]thiadiazine 2,2-dioxide] | 59
9 | CC(F)(F)c1ccc(C2CCCN3CCS(=O)(=O)N=C23)cc1 (stereo not drawn) [Example 231, 9-[4-(1,1-difluoroethyl)phenyl]-3,4,6,7,8,9-hexahydropyrido[2,1-c][1,2,4]thiadiazine 2,2-dioxide] | 78
10 | CC(F)(F)c1ccc(Oc2ccc(C3CCCN4CCS(=O)(=O)N=C34)cc2)cc1 (stereo not drawn) [Example 235, 9-{4-[4-(1,1-difluoroethyl)phenoxy]phenyl}-3,4,6,7,8,9-hexahydropyrido[2,1-c][1,2,4]thiadiazine 2,2-dioxide] | 84
11 | O=S1(=O)CCN2C=CC=C(Oc3ccc4c(c3)CCCC4)C2=N1 [Example 237, 9-(5,6,7,8-tetrahydronaphthalen-2-yloxy)-3,4-dihydropyrido[2,1-c][1,2,4]thiadiazine 2,2-dioxide] | 66
12 | O=S1(=O)CCN2CCCC(Oc3ccc4c(c3)CCCC4)C2=N1 (stereo not drawn) [Example 238, 9-(5,6,7,8-tetrahydronaphthalen-2-yloxy)-3,4,6,7,8,9-hexahydropyrido[2,1-c][1,2,4]thiadiazine 2,2-dioxide] | 87
13 | O=S1(=O)CCN2C=CC=C(c3ccc(-n4cccn4)cc3)C2=N1 [Example 239, 9-[4-(1H-pyrazol-1-yl)phenyl]-3,4-dihydropyrido[2,1-c][1,2,4]thiadiazine 2,2-dioxide] | 88
14 | O=C1CCC(Oc2ccc(C3=CC=CN4CCS(=O)(=O)N=C34)cc2)CC1 [Example 244, 4-[4-(2,2-dioxido-3,4-dihydropyrido[2,1-c][1,2,4]thiadiazin-9-yl)phenoxy]cyclohexanone] | 76
15 | Cc1cccc(Oc2ccc(C3=CC=CN4CCS(=O)(=O)N=C34)cc2)n1 [Example 246, 9-{4-[(6-methylpyridin-2-yl)oxy]phenyl}-3,4-dihydropyrido[2,1-c][1,2,4]thiadiazine 2,2-dioxide] | 73
16 | O=S1(=O)CCN2C=C(Cl)C=C(c3ccc(OCC4CCCO4)cc3)C2=N1 (stereo not drawn) [Example 251, 7-chloro-9-[4-(tetrahydrofuran-2-ylmethoxy)phenyl]-3,4-dihydropyrido[2,1-c][1,2,4]thiadiazine 2,2-dioxide] | 81

Row | SMILES | activity (%)
17 | O=S1(=O)CCN2C=C(Cl)C=C(c3ccc(OCC4CCOCC4)cc3)C2=N1 [Example 253, 7-chloro-9-[4-(tetrahydro-2H-pyran-4-ylmethoxy)phenyl]-3,4-dihydropyrido[2,1-c][1,2,4]thiadiazine 2,2-dioxide] | 80
18 | O=S1(=O)CCN2C=CC=C(c3ccc(Oc4ccc(C(F)(F)F)nc4)cc3)C2=N1 [Example 254, 9-(4-{[6-(trifluoromethyl)pyridin-3-yl]oxy}phenyl)-3,4-dihydropyrido[2,1-c][1,2,4]thiadiazine 2,2-dioxide] | 81
19 | O=S1(=O)CCN2C=CC=C(c3ccc(Oc4cnccc4C(F)(F)F)cc3)C2=N1 [Example 255, 9-(4-{[4-(trifluoromethyl)pyridin-3-yl]oxy}phenyl)-3,4-dihydropyrido[2,1-c][1,2,4]thiadiazine 2,2-dioxide] | 84
20 | O=S1(=O)CCN2C=C(Cl)C=C(c3ccc(Oc4ccc(C(F)(F)F)nc4)cc3)C2=N1 [Example 256, 7-chloro-9-(4-{[6-(trifluoromethyl)pyridin-3-yl]oxy}phenyl)-3,4-dihydropyrido[2,1-c][1,2,4]thiadiazine 2,2-dioxide] | 86
21 | O=S1(=O)CCN2C=CC=C(c3ccc(Oc4ccnc(C(F)(F)F)c4)cc3)C2=N1 [Example 257, 9-(4-{[2-(trifluoromethyl)pyridin-4-yl]oxy}phenyl)-3,4-dihydropyrido[2,1-c][1,2,4]thiadiazine 2,2-dioxide] | 84
22 | O=S1(=O)CCN2C=CC=C(c3ccc(Oc4ccccc4)cn3)C2=N1 [Example 258, 9-(5-phenoxypyridin-2-yl)-3,4-dihydropyrido[2,1-c][1,2,4]thiadiazine 2,2-dioxide] | 79
23 | O=S1(=O)CCN2C=CC=C(c3ccc(Oc4cncc(C(F)(F)F)c4)cc3)C2=N1 [Example 259, 9-(4-{[5-(trifluoromethyl)pyridin-3-yl]oxy}phenyl)-3,4-dihydropyrido[2,1-c][1,2,4]thiadiazine 2,2-dioxide] | 90
24 | O=S1(=O)CCN2C=C(Cl)C=C(c3ccc(Oc4cncc(C(F)(F)F)c4)cc3)C2=N1 [Example 260, 7-chloro-9-(4-{[5-(trifluoromethyl)pyridin-3-yl]oxy}phenyl)-3,4-dihydropyrido[2,1-c][1,2,4]thiadiazine 2,2-dioxide] | 91
25 | O=S1(=O)CCN2CCCC(c3ccc(OC4CCCCC4)cc3)C2=N1 (stereo not drawn) [Example 261, 9-[4-(cyclohexyloxy)phenyl]-3,4,6,7,8,9-hexahydropyrido[2,1-c][1,2,4]thiadiazine 2,2-dioxide] | 72
26 | O=S1(=O)CCN2C=CC=C(c3ccc(OCC(F)(F)F)cc3)C2=N1 [Example 264, 9-[4-(2,2,2-trifluoroethoxy)phenyl]-3,4-dihydropyrido[2,1-c][1,2,4]thiadiazine 2,2-dioxide] | 80
27 | O=S1(=O)CCN2C=CC=C(c3ccc(Oc4ccccc4C(F)(F)F)cc3)C2=N1 [Example 266, 9-{4-[2-(trifluoromethyl)phenoxy]phenyl}-3,4-dihydropyrido[2,1-c][1,2,4]thiadiazine 2,2-dioxide] | 84
28 | O=C1CCCCC1Oc1ccc(C2=CC=CN3CCS(=O)(=O)N=C23)cc1 (stereo not drawn) [Example 274, 2-[4-(2,2-dioxido-3,4-dihydropyrido[2,1-c][1,2,4]thiadiazin-9-yl)phenoxy]cyclohexanone] | 85
29 | O=S1(=O)CCN2C=CC=C(c3ccc(-c4ccccc4)nc3)C2=N1 [Example 282, 9-(6-phenylpyridin-3-yl)-3,4-dihydropyrido[2,1-c][1,2,4]thiadiazine 2,2-dioxide] | 84
30 | CC1(C)Cc2cc(C3=CC=CN4CCS(=O)(=O)N=C34)ccc2C1=O [Example 287, 5-(2,2-dioxido-3,4-dihydropyrido[2,1-c][1,2,4]thiadiazin-9-yl)-2,2-dimethyl-2,3-dihydro-1H-inden-1-one] | 73
31 | O=S1(=O)CCN2CCCC(c3ccc(-n4cccn4)cc3)C2=N1 (stereo not drawn) [Example 290, 9-[4-(1H-pyrazol-1-yl)phenyl]-3,4,6,7,8,9-hexahydropyrido[2,1-c][1,2,4]thiadiazine 2,2-dioxide] | 79
32 | CCCCn1ccc2cc(C3=CC=CN4CCS(=O)(=O)N=C34)ccc21 [Example 292, 9-(1-butyl-1H-indol-5-yl)-3,4-dihydropyrido[2,1-c][1,2,4]thiadiazine 2,2-dioxide] | 90

Same assay, conditions: test compound 30 μM with glutamic acid final 3 mM, change in fluorescence in 3 min, 100% = 3 mM glutamic acid + 300 μM cyclothiazide, 0% = 3 mM glutamic acid only

Row | SMILES | activity (%)
33 | CC(C)Cn1ccc2cc(C3=CC=CN4CCS(=O)(=O)N=C34)ccc21 [Example 293, 9-[1-(2-methylpropyl)-1H-indol-5-yl]-3,4-dihydropyrido[2,1-c][1,2,4]thiadiazine 2,2-dioxide] | 80
34 | CCCCn1ccc2cc(C3CCCN4CCS(=O)(=O)N=C34)ccc21 (stereo not drawn) [Example 294, 9-(1-butyl-1H-indol-5-yl)-3,4,6,7,8,9-hexahydropyrido[2,1-c][1,2,4]thiadiazine 2,2-dioxide] | 82
35 | O=S1(=O)CCN2CCCC(c3ccc4c(ccn4CCc4ccc(F)cc4)c3)C2=N1 (stereo not drawn) [Example 295, 9-{1-[2-(4-fluorophenyl)ethyl]-1H-indol-5-yl}-3,4,6,7,8,9-hexahydropyrido[2,1-c][1,2,4]thiadiazine 2,2-dioxide] | 64
36 | O=C(c1ccccc1)c1ccc(C2=CC=CN3CCS(=O)(=O)N=C23)cc1 [Example 298, [4-(2,2-dioxido-3,4-dihydropyrido[2,1-c][1,2,4]thiadiazin-9-yl)phenyl](phenyl)methanone] | 99

From patent publication US8916551B2, “Heterocyclic compound and use thereof” (Takeda Pharmaceutical Company Limited, priority 2010, dated 2014)
